Results: PMC6783941, “Synthesis of Ring II/III Fragment of Kanamycin: A New Minimum Structural Motif for Aminoglycoside Recognition” (Antibiotics, 2019)

Biological target: T1, ANT-(4′) (Staphylococcus aureus, UniProt P05057)
T1 construct: gene knt; pET plasmid pET-ANT-(4′) in E. coli BL21 (printed for MIC strains)
Test: thermal shift, SYPRO Orange
Assay type: binding
Conditions: Tris 10 mM pH 8.0, 0.2 mM NaCl; protein 4.4 µM and ligand 10 µM solutions mixed; blank Tm 58 ± 0.1
Description: thermal shift, SYPRO Orange on ANT-(4′)

T1 sequence (P05057 whole entry): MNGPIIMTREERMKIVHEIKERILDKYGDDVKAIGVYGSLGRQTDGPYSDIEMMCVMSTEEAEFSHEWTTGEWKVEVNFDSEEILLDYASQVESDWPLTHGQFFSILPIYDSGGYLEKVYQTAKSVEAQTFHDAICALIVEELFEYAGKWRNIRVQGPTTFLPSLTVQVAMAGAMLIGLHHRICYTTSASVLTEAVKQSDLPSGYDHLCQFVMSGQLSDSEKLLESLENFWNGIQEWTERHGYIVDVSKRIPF

| Structure (SMILES) | 4 [°C] | 1 [°C] |
| --- | --- | --- |
| NC[C@H]1O[C@H](O[C@H]2[C@H](O)[C@@H](O)[C@H](N)C[C@@H]2N)[C@H](N)[C@@H](O)[C@@H]1O [compound 4, 4-O-(2,6-di-Deoxy-α-D-2,6-di-amine-glucopyranosyl)-2-deoxy-streptamine] | 61 ± 0.1 |  |
| NC[C@H]1O[C@H](O[C@H]2[C@H](O)[C@@H](O[C@H]3O[C@H](CO)[C@@H](O)[C@H](N)[C@H]3O)[C@H](N)C[C@@H]2N)[C@H](O)[C@@H](O)[C@@H]1O [compound 1, Kanamycin A] |  | 61.5 ± 0.1 |
